Experiments:
[1] = molecular target: T1, ECD of human GLP-1R (amino acids 24 to 145) (Homo sapiens, UniProt P43220); assay: GLP-1R extracellular domain binding by surface plasmon resonance; details: SPR, 1:1 kinetic binding model; representative of n=3
T1 construct: GLP-1R (amino acids 24 to 145); 6His; made in house; host or cells: CHO cells
Source text: DNA encoding each protein was transfected into CHO cells for expression. After expression, the proteins were purified by affinity chromatography (HIS-Trap Ni, Cytiva) followed by size exclusion chromatography using a HiLoad 26/600 Superdex 75pg column (Cytiva) with PBS buffer. […] Surface plasmon resonance measurements were made using a Biacore T200 (Cytiva) and analyzed using T200 Evaluation Software Version 3.1. Receptor ectodomain proteins were covalently immobilized (∼250 resonance units) on Sensor Chip CM4 BR100534 using the Amine coupling Immobilization Wizard in the Biacore T200 Control Software Version 2.0.2. Running buffer was HBS-EP (10 mM Hepes, 150 mM NaCl, 3 mM EDTA, 0.05% P20 [pH 7.6]; Teknova). Concentration series for each sample were made by serial dilution in running buffer. The samples were injected for 150 sec at a 30-µL/min flow rate, followed by 300 sec of dissociation. The surface was regenerated between samples with 10 mM glycine (pH 1.7).
Fig. S10. Receptor extracellular domain (ECD) binding affinity of peptides. Purified GIPR (left column) and GLP-1R (right column) extracellular domains were immobilized to biosensor […]
mM). […]
and efficacy (% Top) of ligands to induce Gα s -GTPγS binding and cAMP accumulation in HEK293 cells expressing GIPR were determined. The equilibrium affinity (KD) of ligands for the immobilized ectodomain of the GIPR were quantified by surface plasmon resonance. […]
Functional potency (EC50) and efficacy (% Top) of ligands to induce Gα s-GTPγS binding and cAMP accumulation in HEK293 cells expressing GLP-1R were determined. The equilibrium affinity (KD) of ligands for the immobilized ectodomain of the GLP-1R were quantified by surface plasmon resonance. […]
recruitment to the GLP-1R were determined using the NanoBRET approach. The potency (EC50) and efficacy (% Top) for ligands to induce GLP-1R Internalization were determined using diffusion-enhanced resonance energy transfer. […]
relative efficacy for NanoBRET assays. SPR data were analyzed using T200 evaluation software (Cytiva). […] ND, not determined. […]

GLP-1R = GLP-1R (Homo sapiens, UniProt P43220); assay: Ligand-induced GLP-1R internalization, SNAP-GLP-1R HEK293 cells; assay type: cell-based; details: SNAP-tagged receptor in HEK293 cells; representative of n≥3
Sequence of GLP-1R (P43220 24-463): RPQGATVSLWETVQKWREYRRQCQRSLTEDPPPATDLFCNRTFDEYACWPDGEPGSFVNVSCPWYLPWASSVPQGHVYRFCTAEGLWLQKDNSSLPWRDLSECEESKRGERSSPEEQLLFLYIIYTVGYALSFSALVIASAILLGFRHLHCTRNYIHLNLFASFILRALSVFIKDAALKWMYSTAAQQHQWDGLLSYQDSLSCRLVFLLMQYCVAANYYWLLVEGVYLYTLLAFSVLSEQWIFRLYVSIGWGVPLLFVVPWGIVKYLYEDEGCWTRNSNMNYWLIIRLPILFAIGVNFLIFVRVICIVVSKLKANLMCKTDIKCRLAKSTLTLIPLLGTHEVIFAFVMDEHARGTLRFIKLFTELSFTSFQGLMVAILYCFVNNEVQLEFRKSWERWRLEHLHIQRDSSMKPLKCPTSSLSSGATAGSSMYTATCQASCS

T1 sequence (P43220 24-145): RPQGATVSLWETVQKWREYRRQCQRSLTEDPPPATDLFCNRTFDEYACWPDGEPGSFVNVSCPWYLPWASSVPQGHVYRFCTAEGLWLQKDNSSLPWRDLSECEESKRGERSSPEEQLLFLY

| GLP-1R ECD kinetic KD [1] | efficacy at inducing internalization of the GLP-1R, in words (GLP-1R) | Compound |
| --- | --- | --- |
| No kinetic fit possible | – | CC[C@H](C)[C@H](NC(=O)[C@H](CO)NC(=O)[C@H](Cc1ccc(O)cc1)NC(=O)[C@H](CC(=O)O)NC(=O)[C@H](CO)NC(=O)[C@@H](NC(=O)[C@H](Cc1ccccc1)NC(=O)[C@@H](NC(=O)CNC(=O)[C@H](CCC(=O)O)NC(=O)[C@H](C)NC(=O)[C@@H](N)Cc1ccc(O)cc1)[C@@H](C)O)[C@@H](C)CC)C(=O)N[C@@H](C)C(=O)N[C@@H](CCSC)C(=O)N[C@@H](CC(=O)O)C(=O)N[C@@H](CCCCN)C(=O)N[C@H](C(=O)N[C@@H](Cc1c[nH]cn1)C(=O)N[C@@H](CCC(N)=O)C(=O)N[C@@H](CCC(N)=O)C(=O)N[C@@H](CC(=O)O)C(=O)N[C@@H](Cc1ccccc1)C(=O)N[C@H](C(=O)N[C@@H](CC(N)=O)C(=O)N[C@@H](Cc1c[nH]c2ccccc12)C(=O)N[C@@H](CC(C)C)C(=O)N[C@@H](CC(C)C)C(=O)N[C@@H](C)C(=O)N[C@@H](CCC(N)=O)C(=O)N[C@@H](CCCCN)C(=O)NCC(=O)N[C@@H](CCCCN)C(=O)N[C@@H](CCCCN)C(=O)N[C@@H](CC(N)=O)C(=O)N[C@@H](CC(=O)O)C(=O)N[C@@H](Cc1c[nH]c2ccccc12)C(=O)N[C@@H](CCCCN)C(=O)N[C@@H](Cc1c[nH]cn1)C(=O)N[C@@H](CC(N)=O)C(=O)N[C@H](C(=O)N[C@H](C(=O)N[C@@H](CCC(N)=O)C(N)=O)[C@@H](C)O)[C@@H](C)CC)C(C)C)[C@@H](C)CC [GIP, reference compound] |
| – | equally efficacious | semaglutide [reference compound] |

— publication PMC9060465 (Proceedings of the National Academy of Sciences of the …, 2022)
